For orientation: melting point means the temperature of the solid-liquid transition.

In turn, `CN(C)c1nn(Cc2ccc(O)cc2)c2nc(=O)c3cc(Br)ccc3n12` [Compound 148, 7-Bromo-1-dimethylamino-3-(4-hydroxy-benzyl)-3H-[1,2,4)triazolo[4,3-a]quinazolin-5-one] displayed a melting point of 283 °C.

Regarding `COc1cc(Cn2nc(N3CCCC3)n3c4ccc(Br)cc4c(=O)nc23)cc(OC)c1` [Compound 150, 7-bromo-3-(3,5-dimethoxy-benzyl)-1-(pyrrolidin-1-yl)-3H-[1,2,4]triazolo-[4,3-a]quinazolin-5-one], the melting point stood at 168 °C.

Consider `COc1cc(Cn2nc(N3CCCC3)n3c4ccc(Br)cc4c(=O)nc23)cc(OC)c1OC` [Compound 151, 7-bromo-1-(pyrrolidin-1-yl)-3-(3,4,5-trimethoxybenzyl)-3H-[1,2,4]triazolo[4,3-a]quinazolin-5-one], for which the melting point fell in the range of 199 to 201 °C.

In turn, `CCCCn1nc(N2CCCC2)n2c3ccc(Br)cc3c(=O)nc12` [Compound 153, 7-bromo-3-(n-butyl)-1-(pyrrolidin-1-yl)-3H-[1,2,4]triazolo[4,3-a]-quinazolin-5-one] had a melting point of 130 °C.

Regarding `COC(=O)C(c1ccccc1)n1nc(N2CCCC2)n2c3ccc(Br)cc3c(=O)nc12` (stereo not drawn) [Compound 154, (7-Bromo-5oxo-1-pyrrolidin-1-yl-5H-[1,2,4]triazolo[4,3-a]quinazolin-3-yl)-phenyl-acetic acid methyl ester], the melting point came to 187 °C.

As to `CN(C)c1nn(CC=Cc2ccccc2)c2nc(=O)c3cc(Br)ccc3n12` [Compound 155, 7-Bromo-1-dimethylamino-3-(3-phenyl-allyl)-3H-[1,2,4]triazolo[4,3-a]quinazolin-5-one], the melting point amounted to 206 °C.

In the case of `Cc1ccc2c(c1)c(=O)nc1n(CC=Cc3ccccc3)nc(N3CCCCCC3)n21` [Compound 157, 1-(azepan-1-yl)-7-methyl-3-(3-phenylallyl)-3H-[1,2,4]triazolo[4,3-a]quinazolin-5-one], the melting point was 193 °C.

For `Cc1ccc2c(c1)c(=O)nc1n(CC=Cc3ccccc3)nc(N3CCCC3)n21` [Compound 158, 7-methyl-3-(3-phenylallyl)-1-(pyrrolidin-1-yl)-3H-[1,2,4]triazolo[4,3-a]quinazolin-5-one], the melting point amounted to 225 °C.

For the molecule `O=c1nc2n(CC=Cc3ccccc3)nc(N3CCCC3)n2c2ccc(O)cc12` [Compound 161, 7-hydroxy-3-(3-phenylallyl)-1-(pyrrolidin-1-yl)-3H-[1,2,4]triazolo[4,3-a]quinazolin-5-one], the melting point worked out at 255 °C.

As to `CCCCN(CCCC)c1nnc2n(C)c(=O)c3cc(Cl)ccc3n12` [Compound 167, 7-chloro-1-dibutylamino-4-methyl-4H-[1,2,4]triazolo[4,3-a]-quinazolin-5-one], the melting point is 112 °C.

In the case of `Cn1c(=O)c2cc(Cl)ccc2n2c(N3CCCCC3)nnc12` [Compound 168, 7-chloro-4-methyl-1-(piperidin-1-yl)4H-[1,2,4]triazolo[4,3-a]-quinazolin-5-one], the melting point was 192 °C.

In turn, `CN1CCN(c2nnc3n(C)c(=O)c4cc(Cl)ccc4n23)CC1` [Compound 169, 7-Chloro-4-methyl-1-(4-methyl-piperazin-1-yl)-4H-[1,2,4]triazolo[4,3-a]quinazolin-5-one] came in with a melting point of 180 to 182 °C.

Consider `Cn1c(=O)c2cc(Cl)ccc2n2c(N3CC4CCC(C)(C3)C4(C)C)nnc12` (stereo not drawn) [Compound 170, 7-Chloro-4-methyl-1-(1,8,8-trimethyl-3-aza-bicyclo[3.2.1]oct-3-yl)-4H-[1,2,4]triazolo[4,3-a]quinazolin-5-one], for which the melting point was 185 °C.

For the molecule `O=c1c2cc(Cl)ccc2n2c(N3CCCCCC3)nnc2n1Cc1ccccc1` [Compound 172, 1-(azepan-1-yl)-4-benzyl-7-chloro-4H-[1,2,4]triazolo[4,3-a]-quinazolin-5-one], the melting point is 162 °C.

On to `O=c1c2cc(Cl)ccc2n2c(N3CCCC3)nnc2n1Cc1ccccc1` [Compound 173, 4-benzyl-7chloro-1-(pyrrolidin-1-yl)-4H-[1,2,4]triazolo[4,3-a]-quinazolin-5-one], for which the melting point was determined as 163 °C.

Regarding `O=c1c2cc(Cl)ccc2n2c(N3CCCCC3)nnc2n1Cc1ccccc1` [Compound 174, 4-benzyl-7-chloro-1-(piperidin-1-yl)-4H-[1,2,4]triazolo[4,3-a]-quinazolin-5-one], the melting point came to 178 °C.

`Cn1c(=O)c2ccc(Cl)cc2n2c(N3CCCCCC3)nnc12` [Compound 175, 1-(azepan-1-yl)-8-chloro-4-methyl-4H-[1,2,4]triazolo[4,3-a]-quinazolin-5-one]: the melting point was 179 °C.

For the molecule `Cn1c(=O)c2cc(Br)ccc2n2c(N3CCCCCC3)nnc12` [Compound 177, 1-(azepan-1-yl)-7-bromo-4-methyl-4H-[1,2,4]triazolo[4,3-a]-quinazolin-5-one], the melting point came out at 174 °C.

For the molecule `O=c1c2cc(Br)ccc2n2c(N3CCCCC3)nnc2n1Cc1ccccc1` [Compound 178, 4-benzyl-7-bromo-1-(piperidin-1-yl)-4H-[1,2,4]triazolo[4,3-a]-quinazolin-5-one], the melting point lay in the range of 183 to 185 °C.

As for `CN(C)c1nnc2n(Cc3ccccc3)c(=O)c3cc(Br)ccc3n12` [Compound 179, 4-Benzyl-7-bromo-1-dimethylamino-4H-[1,2,4]triazolo[4,3-a]quinazolin-5-one], the melting point amounted to 171 °C.

In turn, `O=c1c2cc(Br)ccc2n2c(N3CCOCC3)nnc2n1Cc1ccccc1` [Compound 180, 4-Benzyl-7-bromo-1-morpholin-4-yl-4H-[1,2,4]triazolo[4,3-a]quinazolin-5-one] had a melting point of 189 °C.

The molecule `O=c1c2cc(Br)ccc2n2c(N3CCSCC3)nnc2n1Cc1ccccc1` [Compound 181, 4-Benzyl-7-bromo-1-thiomorpholin-4-yl-4H-[1,2,4]triazolo[4,3-a]quinazolin-5-one] showed a melting point of 235 °C.

With `CN1CCN(c2nnc3n(Cc4ccccc4)c(=O)c4cc(Br)ccc4n23)CC1` [Compound 182, 4-Benzyl-7-bromo-1-(4-methyl-piperazin-1-yl)-4H-[1,2,4]triazolo[4,3-a]quinazolin-5-one], the melting point was 230 °C.

Consider `O=c1c2cc(Br)ccc2n2c(N3CCN(c4ccccc4)CC3)nnc2n1Cc1ccccc1` [Compound 183, 4-Benzyl-7-bromo-1-(4-phenyl-piperazin-1-yl)-4H-[1,2,4]triazolo[4,3-a]quinazolin-5-one], for which the melting point came out at 238 °C.

For the molecule `O=c1c2cc(Br)ccc2n2c(N3CC=CCC3)nnc2n1Cc1ccccc1` [Compound 185, 4-Benzyl-7-bromo-1-(3,6-dihydro-2H-pyridin-1-yl)-4H-[1,2,4]triazolo[4,3-a]quinazolin-5-one], the melting point is 172 °C.

Molecule `O=c1c2cc(Br)ccc2n2c(N3CC=CC3)nnc2n1Cc1ccccc1` [Compound 186, 4-Benzyl-7-bromo-1-(2,5-dihydro-pyrrol-1-yl)-4H-[1,2,4]triazolo[4,3-a]quinazolin-5-one] showed a melting point of 210 °C.

In turn, `O=c1c2cc(Br)ccc2n2c(N3CCC(O)C3)nnc2n1Cc1ccccc1` (stereo not drawn) [Compound 187, 4-Benzyl-7-bromo-1-(3-hydroxy-pyrrolidin-1-yl)-4H-[1,2,4]triazolo[4,3-a]quinazolin-5-one] registered a melting point of 176 °C.

Values taken from patent publication US6828315B1, “1-Amino triazoloc4,3-a! quinazoline-5-ones and/or -5-thiones inhibiting phosphodiesterase IV” (Warner-Lambert LLC, priority 1999, dated 2004).
